Consider one compound from PMC5218480 (PLoS ONE, 2017).

The test system of this assay is MV-4-11 cells. Put plainly: Gene expression microarray analysis (Affymetrix PrimeView) and GSEA. More on the design: RFU PODN (11730768_x_at) / Fold change /veh PODN (11730768_x_at) / RFU LINC00158 (11744669_a_at) / Fold change /veh LINC00158 (11744669_a_at) / RFU DUSP10 (11751237_a_at) / Fold change /veh DUSP10 (11751237_a_at) / RFU ID3 (11757404_x_at) / Fold change /veh ID3 (11757404_x_at) / RFU PLEKHG5 (11737974_s_at) / Fold change /veh PLEKHG5 (11737974_s_at) / RFU LRRC4B (11730491_at) / Fold change /veh LRRC4B (11730491_at) / RFU GIMAP4 (11747438_a_at) / Fold change /veh GIMAP4 (11747438_a_at) / RFU KRT8 (11758183_x_at) / Fold change /veh KRT8 (11758183_x_at) / RFU CNN1 (11734310_a_at) / Fold change /veh CNN1 (11734310_a_at) / RFU VPS37D (11726825_at) / Fold change /veh VPS37D (11726825_at) / RFU C10orf10 (11716522_x_at) / Fold change /veh C10orf10 (11716522_x_at) / RFU KIR2DL2 /// KIR2DL4 /// KIR2DL5A /// KIR2DL5B /// KIR2DS1 /// KIR2DS2 /// KIR2DS3 /// KIR2DS4 /// KIR3DL3 /// KIR3DL3 /// KIR3DS1 (11738374_at) / Fold change /veh KIR2DL2 /// KIR2DL4 /// KIR2DL5A /// KIR2DL5B /// KIR2DS1 /// KIR2DS2 /// KIR2DS3 /// KIR2DS4 /// KIR3DL3 /// KIR3DL3 /// KIR3DS1 (11738374_at) / RFU C1QL1 (11718748_at) / Fold change /veh C1QL1 (11718748_at) / RFU TMPRSS4 (11747572_a_at) / Fold change /veh TMPRSS4 (11747572_a_at) / RFU HAMP (11756126_x_at) / Fold change /veh HAMP (11756126_x_at) / RFU RNFT2 (11725882_a_at) / Fold change /veh RNFT2 (11725882_a_at) / RFU NR4A2 (11747474_a_at) / Fold change /veh NR4A2 (11747474_a_at) / RFU ABCC12 (11746883_a_at) / Fold change /veh ABCC12 (11746883_a_at) / RFU TMEM136 (11760407_x_at) / Fold change /veh TMEM136 (11760407_x_at) / RFU CLDN22 /// WWC2 (11732394_at) / Fold change /veh CLDN22 /// WWC2 (11732394_at) / RFU HLA-DPB1 (11760878_x_at) / Fold change /veh HLA-DPB1 (11760878_x_at) / RFU SPINT1 (11716480_a_at) / Fold change /veh SPINT1 (11716480_a_at) / RFU GAP43 (11754022_s_at) / Fold change /veh GAP43 (11754022_s_at) / RFU A4GNT (11735810_at) / Fold change /veh A4GNT (11735810_at) / RFU PRB3 (11715151_x_at) / Fold change /veh PRB3 (11715151_x_at) / RFU TUBB4B (11761932_at) / Fold change /veh TUBB4B (11761932_at) / RFU CAPN14 (11732068_a_at) / Fold change /veh CAPN14 (11732068_a_at) / RFU TMCC2 (11721928_a_at) / Fold change /veh TMCC2 (11721928_a_at) / RFU IRGQ (11745062_a_at) / Fold change /veh IRGQ (11745062_a_at) / RFU FAM174B (11720279_a_at) / Fold change /veh FAM174B (11720279_a_at) / RFU TMPRSS4 (11748680_a_at) / Fold change /veh TMPRSS4 (11748680_a_at) / RFU FAM212B (11763350_a_at) / Fold change /veh FAM212B (11763350_a_at) / RFU PLEKHG5 (11743358_a_at) / Fold change /veh PLEKHG5 (11743358_a_at) / RFU ZSCAN30 (11745921_a_at) / Fold change /veh ZSCAN30 (11745921_a_at) / RFU CMKLR1 (11741424_a_at) / Fold change /veh CMKLR1 (11741424_a_at) / RFU LOC101060620 /// MAPK8IP1 (11723275_at) / Fold change /veh LOC101060620 /// MAPK8IP1 (11723275_at) / RFU SPTSSB (11747773_x_at) / Fold change /veh SPTSSB (11747773_x_at) / RFU PRSS12 (11739890_at) / Fold change /veh PRSS12 (11739890_at) / RFU BIN1 (11741810_x_at) / Fold change /veh BIN1 (11741810_x_at) / RFU WNT11 (11732464_a_at) / Fold change /veh WNT11 (11732464_a_at) / RFU C10orf10 (11716521_a_at) / Fold change /veh C10orf10 (11716521_a_at) / RFU C5orf56 (11738089_at) / Fold change /veh C5orf56 (11738089_at) / RFU CYB561 (11721691_x_at) / Fold change /veh CYB561 (11721691_x_at) / RFU ANKRD19P (11752326_a_at) / Fold change /veh ANKRD19P (11752326_a_at) / RFU OR2T12 /// OR2T33 /// OR2T8 (11738714_s_at) / Fold change /veh OR2T12 /// OR2T33 /// OR2T8 (11738714_s_at) / RFU VCAN (11748164_a_at) / Fold change /veh VCAN (11748164_a_at) / RFU JSRP1 (11732532_at) / Fold change /veh JSRP1 (11732532_at) / RFU KRTAP10-11 (11738290_x_at) / Fold change /veh KRTAP10-11 (11738290_x_at) / RFU MYO3A (11730013_a_at) / Fold change /veh MYO3A (11730013_a_at) / RFU EBF3 (11725865_a_at) / Fold change /veh EBF3 (11725865_a_at) / RFU CAMK2N1 (11719241_x_at) / Fold change /veh CAMK2N1 (11719241_x_at) / RFU C5orf56 (11738088_a_at) / Fold change /veh C5orf56 (11738088_a_at) / RFU OLFML3 (11715873_a_at) / Fold change /veh OLFML3 (11715873_a_at) / RFU LOC100653217 /// NTM (11731650_a_at) / Fold change /veh LOC100653217 /// NTM (11731650_a_at) / RFU MAPK11 (11762145_a_at) / Fold change /veh MAPK11 (11762145_a_at) / RFU FIZ1 (11724087_x_at) / Fold change /veh FIZ1 (11724087_x_at) / RFU OASL (11726364_x_at) / Fold change /veh OASL (11726364_x_at) / RFU SOX15 (11748057_x_at) / Fold change /veh SOX15 (11748057_x_at) / RFU CD79A (11719716_a_at) / Fold change /veh CD79A (11719716_a_at) / RFU HIST1H1D (11736915_at) / Fold change /veh HIST1H1D (11736915_at) / RFU CASKIN2 (11723855_a_at) / Fold change /veh CASKIN2 (11723855_a_at) / RFU LOC730098 (11760151_x_at) / Fold change /veh LOC730098 (11760151_x_at) / RFU OR4N2 (11742367_at) / Fold change /veh OR4N2 (11742367_at) / RFU PRRT2 (11749266_a_at) / Fold change /veh PRRT2 (11749266_a_at) / RFU SNX32 (11753110_a_at) / Fold change /veh SNX32 (11753110_a_at) / RFU CDHR5 (11726645_a_at) / Fold change /veh CDHR5 (11726645_a_at) / RFU RCAN1 (11760418_a_at) / Fold change /veh RCAN1 (11760418_a_at) / RFU FAM167A (11723789_a_at) / Fold change /veh FAM167A (11723789_a_at) / RFU FAM26E (11764081_at) / Fold change /veh FAM26E (11764081_at) / RFU ISYNA1 (11749810_s_at) / Fold change /veh ISYNA1 (11749810_s_at) / RFU ACY1 (11761880_at) / Fold change /veh ACY1 (11761880_at) / RFU 11764098_at / Fold change /veh 11764098_at / RFU SAMD14 (11745864_x_at) / Fold change /veh SAMD14 (11745864_x_at) / RFU NPB (11741838_a_at) / Fold change /veh NPB (11741838_a_at) / RFU TMPRSS6 (11731388_a_at) / Fold change /veh TMPRSS6 (11731388_a_at) / RFU KRTAP10-2 (11738614_at) / Fold change /veh KRTAP10-2 (11738614_at) / RFU ARHGAP8 /// PRR5-ARHGAP8 (11727945_x_at) / Fold change /veh ARHGAP8 /// PRR5-ARHGAP8 (11727945_x_at) / RFU KRTAP5-7 /// NADSYN1 (11734609_at) / Fold change /veh KRTAP5-7 /// NADSYN1 (11734609_at) / RFU RASL12 (11751679_a_at) / Fold change /veh RASL12 (11751679_a_at) / RFU CDKN2B (11736163_a_at) / Fold change /veh CDKN2B (11736163_a_at) / RFU PRF1 (11729649_at) / Fold change /veh PRF1 (11729649_at) / RFU, ZNF638 /// ZNF638-IT1 / Fold change vs veh, ZNF638 /// ZNF638-IT1 / RFU, PANK3 / Fold change vs veh, PANK3 / RFU, SH3YL1 / Fold change vs veh, SH3YL1 / RFU, ZEB2 / Fold change vs veh, ZEB2 / RFU, NRIP1 / Fold change vs veh, NRIP1 / RFU, PTTG1IP / Fold change vs veh, PTTG1IP / RFU, CAPN2 / Fold change vs veh, CAPN2 / RFU, MED14 / Fold change vs veh, MED14 / RFU, SNORA58 / Fold change vs veh, SNORA58 / RFU, C1orf63 / Fold change vs veh, C1orf63 / RFU, LRRFIP1 / Fold change vs veh, LRRFIP1 / RFU, NDUFAF7 / Fold change vs veh, NDUFAF7 / RFU, SLC12A2 / Fold change vs veh, SLC12A2 / RFU, IBTK / Fold change vs veh, IBTK / RFU, ESF1 / Fold change vs veh, ESF1 / Fold change vs veh, TMEM50B / RFU, TAOK1 / Fold change vs veh, TAOK1 / RFU, ACBD3 / Fold change vs veh, ACBD3 / RFU, TMA16 / Fold change vs veh, TMA16 / RFU, RWDD3 / Fold change vs veh, RWDD3 / RFU, BCAT1 / Fold change vs veh, BCAT1 / RFU, EDEM3 / Fold change vs veh, EDEM3 / RFU, TMEM33 / Fold change vs veh, TMEM33 / RFU, WDR75 / Fold change vs veh, WDR75 / RFU, AHCTF1 / Fold change vs veh, AHCTF1 / RFU, TFRC / Fold change vs veh, TFRC / RFU, ZDHHC17 / Fold change vs veh, ZDHHC17 / RFU, NOM1 / Fold change vs veh, NOM1 / RFU, ARL8B / Fold change vs veh, ARL8B / RFU, ZBTB11 / Fold change vs veh, ZBTB11 / RFU, TAMM41 / Fold change vs veh, TAMM41 / RFU, KIAA1704 /// LOC100996395 / Fold change vs veh, KIAA1704 /// LOC100996395 / RFU, ING1 / Fold change vs veh, ING1 / RFU, TRMT61B / Fold change vs veh, TRMT61B / RFU, FUBP3 / Fold change vs veh, FUBP3 / RFU, TP53 / Fold change vs veh, TP53 / RFU, TNKS2 / Fold change vs veh, TNKS2 / RFU, ZFP14 / Fold change vs veh, ZFP14 / RFU, ACTR2 / Fold change vs veh, ACTR2 / RFU, PPP3R1 / Fold change vs veh, PPP3R1 / RFU, PIK3R1 / Fold change vs veh, PIK3R1 / RFU, HNRNPA1 / Fold change vs veh, HNRNPA1 / RFU, RNF170 / Fold change vs veh, RNF170 / RFU, ZNF28 / Fold change vs veh, ZNF28 / RFU, RNGTT / Fold change vs veh, RNGTT / RFU, OGT / Fold change vs veh, OGT / RFU, BRD1 / Fold change vs veh, BRD1 / RFU, MARS / Fold change vs veh, MARS / RFU, ZNF655 / Fold change vs veh, ZNF655 / RFU, FAHD1 / Fold change vs veh, FAHD1 / RFU, BDP1 / Fold change vs veh, BDP1 / RFU, LRRCC1 / Fold change vs veh, LRRCC1 / RFU, ARID1A / Fold change vs veh, ARID1A / RFU, ZNF146 / Fold change vs veh, ZNF146 / RFU, ZNF330 / Fold change vs veh, ZNF330 / RFU, GPN3 / Fold change vs veh, GPN3 / RFU, C9orf123 / Fold change vs veh, C9orf123 / RFU, N4BP2L2 / Fold change vs veh, N4BP2L2 / RFU, ARFIP1 / Fold change vs veh, ARFIP1 / RFU, FAM179B / Fold change vs veh, FAM179B / RFU, BCL10 / Fold change vs veh, BCL10 / RFU, UHRF1BP1L / Fold change vs veh, UHRF1BP1L / RFU, BET1 / Fold change vs veh, BET1 / RFU, CNOT2 / Fold change vs veh, CNOT2 / RFU, ZNF268 / Fold change vs veh, ZNF268 / Fold change vs veh, ZNF507 / RFU, DGCR2 / Fold change vs veh, DGCR2 / RFU, WDSUB1 / Fold change vs veh, WDSUB1 / Fold change vs veh, HSP90B1 /// MIR3652 / RFU, ADSS / Fold change vs veh, ADSS / RFU, GK / Fold change vs veh, GK / RFU, ZNF148 / Fold change vs veh, ZNF148 / RFU, TAF9 / Fold change vs veh, TAF9 / RFU, SLC1A5 / Fold change vs veh, SLC1A5 / RFU, SLMO2 / Fold change vs veh, SLMO2 / RFU, ABCC4 / Fold change vs veh, ABCC4 / RFU, LOC101060439 /// RAP1B / Fold change vs veh, LOC101060439 /// RAP1B / RFU, RFX7 / Fold change vs veh, RFX7 / RFU, GTPBP10 / Fold change vs veh, GTPBP10 / RFU, CNEP1R1 / Fold change vs veh, CNEP1R1 / RFU, BIVM-ERCC5 /// ERCC5 / Fold change vs veh, BIVM-ERCC5 /// ERCC5 / RFU, ILF3 / Fold change vs veh, ILF3 / RFU 11762660_at / Fold change /veh 11762660_at / RFU VCAN (11757783_s_at) / Fold change /veh VCAN (11757783_s_at) / RFU DDX43 (11728927_at) / Fold change /veh DDX43 (11728927_at) / RFU KRT8 (11758188_x_at) / Fold change /veh KRT8 (11758188_x_at) / RFU NKD1 (11759106_at) / Fold change /veh NKD1 (11759106_at) / RFU SRD5A1 (11742802_a_at) / Fold change /veh SRD5A1 (11742802_a_at) / RFU TPSAB1 /// TPSB2 (11721975_s_at) / Fold change /veh TPSAB1 /// TPSB2 (11721975_s_at) / RFU GSTM3 (11746129_a_at) / Fold change /veh GSTM3 (11746129_a_at) / RFU IL23R (11737362_x_at) / Fold change /veh IL23R (11737362_x_at) / RFU TMEM51 (11727254_a_at) / Fold change /veh TMEM51 (11727254_a_at) / RFU PIWIL2 (11732686_x_at) / Fold change /veh PIWIL2 (11732686_x_at) / RFU ORM1 (11744905_x_at) / Fold change /veh ORM1 (11744905_x_at) / RFU CCDC152 (11743942_at) / Fold change /veh CCDC152 (11743942_at) / RFU ECM1 (11717891_a_at) / Fold change /veh ECM1 (11717891_a_at) / RFU IL23R (11748794_a_at) / Fold change /veh IL23R (11748794_a_at) / RFU TNFAIP8L3 (11732012_x_at) / Fold change /veh TNFAIP8L3 (11732012_x_at) / RFU MBOAT4 (11741988_at) / Fold change /veh MBOAT4 (11741988_at) / RFU 11764193_at / Fold change /veh 11764193_at / RFU TMEM53 (11763286_at) / Fold change /veh TMEM53 (11763286_at) / RFU MAGEB2 (11727129_at) / Fold change /veh MAGEB2 (11727129_at) / RFU TMEM200A (11744735_a_at) / Fold change /veh TMEM200A (11744735_a_at) / RFU CCDC152 (11751479_a_at) / Fold change /veh CCDC152 (11751479_a_at) / RFU FAM211A (11726209_a_at) / Fold change /veh FAM211A (11726209_a_at) / RFU RGS16 (11746705_a_at) / Fold change /veh RGS16 (11746705_a_at) / RFU VCAN (11755009_s_at) / Fold change /veh VCAN (11755009_s_at) / RFU RHOB (11743442_s_at) / Fold change /veh RHOB (11743442_s_at) / RFU RGS16 (11720943_a_at) / Fold change /veh RGS16 (11720943_a_at) / RFU RGS16 (11720944_at) / Fold change /veh RGS16 (11720944_at) / RFU, VPS4B / Fold change vs veh, VPS4B / RFU, CREB1 / Fold change vs veh, CREB1 / RFU, DNAJC13 / Fold change vs veh, DNAJC13 / RFU, GNAQ / Fold change vs veh, GNAQ / RFU, CDK5R1 / Fold change vs veh, CDK5R1 / RFU, ZRANB3 / Fold change vs veh, ZRANB3 / RFU, CUL4A / Fold change vs veh, CUL4A / RFU, CCNY / Fold change vs veh, CCNY / RFU, UFL1 / Fold change vs veh, UFL1 / RFU, COG3 / Fold change vs veh, COG3 / RFU, DIAPH2 / Fold change vs veh, DIAPH2 / RFU, SKA2 / Fold change vs veh, SKA2 / RFU, AFF3 / Fold change vs veh, AFF3 / RFU, LMF1 / Fold change vs veh, LMF1 / RFU, IPO11 / Fold change vs veh, IPO11 / RFU, DFFB / Fold change vs veh, DFFB / RFU, FOXP1 / Fold change vs veh, FOXP1 / RFU, CARD8 / Fold change vs veh, CARD8 / RFU, STRN3 / Fold change vs veh, STRN3 / RFU, ADK / Fold change vs veh, ADK / RFU, RASSF2 / Fold change vs veh, RASSF2 / RFU, WIPF1 / Fold change vs veh, WIPF1 / RFU, LARP1B / Fold change vs veh, LARP1B / RFU, RASA1 / Fold change vs veh, RASA1 / RFU, RB1 / Fold change vs veh, RB1 / RFU, PPFIA1 / Fold change vs veh, PPFIA1 / RFU, MAT2A / Fold change vs veh, MAT2A / RFU, CCT5 / Fold change vs veh, CCT5 / RFU, WDR92 / Fold change vs veh, WDR92 / RFU, CUX1 / Fold change vs veh, CUX1 / RFU, TTC7A / Fold change vs veh, TTC7A / RFU, TMEM135 / Fold change vs veh, TMEM135 / RFU, DEPTOR / Fold change vs veh, DEPTOR / RFU, CPM / Fold change vs veh, CPM / RFU, DNAJB6 / Fold change vs veh, DNAJB6 / RFU, CACNA2D3 / Fold change vs veh, CACNA2D3 / RFU, DTX4 / Fold change vs veh, DTX4 / RFU, TFCP2 / Fold change vs veh, TFCP2 / RFU, GMCL1 /// GMCL1P1 / Fold change vs veh, GMCL1 /// GMCL1P1 / RFU, AEBP2 / Fold change vs veh, AEBP2 / RFU, SNHG1 /// SNORD22 /// SNORD25 /// SNORD26 /// SNORD27 /// SNORD28 /// SNORD29 /// SNORD31 / Fold change vs veh, SNHG1 /// SNORD22 /// SNORD25 /// SNORD26 /// SNORD27 /// SNORD28 /// SNORD29 /// SNORD31 / Fold change (Aza/veh), C12orf56 (ProbeSet 11735607_a_at) / Fold change (ACY-1035/veh), C12orf56 (ProbeSet 11735607_a_at) / Fold change (Aza/veh), FGFR1OP (ProbeSet 11751329_s_at) / Fold change (ACY-1035/veh), FGFR1OP (ProbeSet 11751329_s_at) / Fold change (Aza/veh), VPS36 (ProbeSet 11739960_a_at) / Fold change (ACY-1035/veh), VPS36 (ProbeSet 11739960_a_at) / RFU SYPL1 (11715823_x_at) / Fold change /veh SYPL1 (11715823_x_at) / RFU IGFBP7 (11715501_s_at) / Fold change /veh IGFBP7 (11715501_s_at) / RFU REEP3 (11722064_at) / Fold change /veh REEP3 (11722064_at) / RFU IGLL1 (11728026_x_at) / Fold change /veh IGLL1 (11728026_x_at): dose or concentration left out as unconfirmed. Format: cell-based, human. The settings on record: ProbeSet 11740011_at; LIST B.

In the case of `Nc1ncn([C@@H]2O[C@H](CO)[C@@H](O)[C@H]2O)c(=O)n1` [azacitidine], the “Fold change vs veh, ZFP14” value is on record as 0.92.
